Numbers after ± are expanded uncertainties.
Columns and labels:
[1] = refractive index (Na D-line) (dimensionless); conditions: 298.15 K; 101.33 kPa; Liquid; Standard Abbe refractometry
[2] = Liquid; for mass density: 101.33 kPa, Vibrating tube method; for vapor or sublimation pressure: Closed cell (Static) method

CC[N+](=O)[O-] [nitroethane]
refractive index [1]: 1.38951 ± 0.00071
mass density ([2]; 298.15 K): 1044.21 ± 2.3 kg/m3
vapor or sublimation pressure ([2]; 298.15 K): 2.95 ± 0.05 kPa
vapor or sublimation pressure ([2]; 308.15 K): 4.69 ± 0.06 kPa
vapor or sublimation pressure ([2]; 318.15 K): 7.24 ± 0.07 kPa

CCCCCCl [1-chloropentane]
refractive index [1]: 1.41015 ± 0.00068
mass density ([2]; 298.15 K): 877.089 ± 2.2 kg/m3
vapor or sublimation pressure ([2]; 298.15 K): 4.24 ± 0.07 kPa
vapor or sublimation pressure ([2]; 308.15 K): 7.09 ± 0.08 kPa
vapor or sublimation pressure ([2]; 318.15 K): 10.91 ± 0.09 kPa

CCCCCl [1-chlorobutane]
refractive index [1]: 1.39953 ± 0.00068
mass density ([2]; 298.15 K): 881.172 ± 2.2 kg/m3
vapor or sublimation pressure ([2]; 298.15 K): 13.72 ± 0.15 kPa
vapor or sublimation pressure ([2]; 308.15 K): 20.66 ± 0.19 kPa
vapor or sublimation pressure ([2]; 318.15 K): 31.46 ± 0.23 kPa

C[N+](=O)[O-] [nitromethane]
refractive index [1]: 1.37956 ± 0.00072
mass density ([2]; 298.15 K): 1130.87 ± 2.3 kg/m3
vapor or sublimation pressure ([2]; 298.15 K): 4.83 ± 0.07 kPa
vapor or sublimation pressure ([2]; 308.15 K): 7.5 ± 0.09 kPa
vapor or sublimation pressure ([2]; 318.15 K): 12.57 ± 0.11 kPa

Reference: the NIST ThermoML archive (doi:10.1016/j.fluid.2012.10.015)
